Experimental data reported in PubChem BioAssay AID330 (DTP/NCI, 2004).
“And” between values parts separate entries of the source, which are not always exact repeats. Equal entries are not always repeated. Inconclusive results and toxic doses are left out.

System: P388 leukemia ip, CD2F1 mice, survival T/C
Test: NCI In Vivo Anticancer Drug Screen. Data for tumor model P388 Leukemia (intraperitoneal) in CD2F1 (CDF1) mice
Conditions: endpoint: median survival time, higher = longer survival
How it was run: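 Mice carrying the transplanted tumor received test compound or vehicle. Survival was recorded in each group, and the value is the treated-group measurement divided by that of the vehicle-treated control group.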

[1] = dose: 6.25 mg/kg/injection, schedule: Q01DX009 (ip), vehicle: Klucel (hydroxypropylcellulose) (HPC)
[2] = dose: 50.0 mg/kg/injection, schedule: Q01DX005 (ip), vehicle: Klucel (hydroxypropylcellulose) (HPC)
[3] = dose: 100.0 mg/kg/injection, schedule: Q01DX005 (ip), vehicle: Klucel (hydroxypropylcellulose) (HPC)
[4] = dose: 200.0 mg/kg/injection, schedule: Q01DX005 (ip), vehicle: Klucel (hydroxypropylcellulose) (HPC)
[5] = dose: 50.0 mg/kg/injection, schedule: Q01DX009 (ip), vehicle: Klucel (hydroxypropylcellulose) (HPC)
[6] = dose: 100.0 mg/kg/injection, schedule: Q01DX009 (ip), vehicle: Klucel (hydroxypropylcellulose) (HPC)
[7] = dose: 200.0 mg/kg/injection, schedule: Q01DX009 (ip), vehicle: Klucel (hydroxypropylcellulose) (HPC)
[8] = dose: 50.0 mg/kg/injection, schedule: Q01DX005 (ip), vehicle: saline with Tween-80
[9] = dose: 100.0 mg/kg/injection, schedule: Q01DX005 (ip), vehicle: saline with Tween-80
[10] = dose: 200.0 mg/kg/injection, schedule: Q01DX005 (ip), vehicle: saline with Tween-80

## Cc1ccc(NC(=O)N2CC2)cc1NC(=O)N1CC1
dose: 0.78 mg/kg/injection, schedule: Q01DX009 (ip), vehicle: Klucel (hydroxypropylcellulose) (HPC)
  T/C: 112 % of control
dose: 3.12 mg/kg/injection, schedule: Q01DX009 (ip), vehicle: Klucel (hydroxypropylcellulose) (HPC)
  T/C: 154 % of control
[1]
  T/C: 107 % of control and 90 % of control

## CN(C)NP(=O)(NN(C)C)c1ccccc1
dose: 60.0 mg/kg/injection, schedule: Q01DX005 (ip), vehicle: saline
  T/C: 100 % of control
dose: 120.0 mg/kg/injection, schedule: Q01DX005 (ip), vehicle: saline
  T/C: 103 % of control
dose: 240.0 mg/kg/injection, schedule: Q01DX005 (ip), vehicle: saline
  T/C: 109 % of control

## CC(C)NC(=O)OCc1c(COC(=O)NC(C)C)c([N+](=O)[O-])n2c1CCC2
dose: 25.0 mg/kg/injection, schedule: Q01DX005 (ip), vehicle: Klucel (hydroxypropylcellulose) (HPC)
  T/C: 95 % of control
[2]
  T/C: 99 % of control
[3]
  T/C: 99 % of control and 97 % of control
[4]
  T/C: 104 % of control and 94 % of control
dose: 400.0 mg/kg/injection, schedule: Q01DX005 (ip), vehicle: Klucel (hydroxypropylcellulose) (HPC)
  T/C: 100 % of control

## Cc1ccc(-c2cc(C(=O)NN)c(C#N)c(=O)[nH]2)cc1
dose: 60.0 mg/kg/injection, schedule: Q01DX005 (ip), vehicle: suspension in saline
  T/C: 97 % of control
dose: 120.0 mg/kg/injection, schedule: Q01DX005 (ip), vehicle: suspension in saline
  T/C: 100 % of control
dose: 240.0 mg/kg/injection, schedule: Q01DX005 (ip), vehicle: suspension in saline
  T/C: 100 % of control

## COc1nc(N)nc2c1ncn2C1CC(O)C(CO)O1 (stereo not drawn)
[2]
  T/C: 100 % of control
[3]
  T/C: 100 % of control
[4]
  T/C: 112 % of control

## Cc1ccc(OP(=O)(Oc2ccc(C)cc2)Oc2ccc(C)cc2)cc1.Cc1ccc(OP(=O)(Oc2ccc(C)cc2)Oc2ccc(C)cc2)cc1.Cc1ccc(OP(=O)(Oc2ccc(C)cc2)Oc2ccc(C)cc2)cc1.Cc1ccc(OP(=O)(Oc2ccc(C)cc2)Oc2ccc(C)cc2)cc1.[Ni+2].[O-][Cl+3]([O-])([O-])O
dose: 20.0 mg/kg/injection, schedule: Q01DX001 (ip), vehicle: Klucel (hydroxypropylcellulose) (HPC)
  T/C: 100 % of control
dose: 40.0 mg/kg/injection, schedule: Q01DX001 (ip), vehicle: Klucel (hydroxypropylcellulose) (HPC)
  T/C: 106 % of control
dose: 80.0 mg/kg/injection, schedule: Q01DX001 (ip), vehicle: Klucel (hydroxypropylcellulose) (HPC)
  T/C: 97 % of control

## CC1C(=O)OC(C(O)C(C)(O)C2C(O)CC3C4CC5OC56C(O)C=CC(=O)C6(C)C4CCC32C)C1C (stereo not drawn)
dose: 1.25 mg/kg/injection, schedule: Q01DX009 (ip), vehicle: Klucel (hydroxypropylcellulose) (HPC)
  T/C: 108 % of control
dose: 2.5 mg/kg/injection, schedule: Q01DX009 (ip), vehicle: Klucel (hydroxypropylcellulose) (HPC)
  T/C: 103 % of control
dose: 5.0 mg/kg/injection, schedule: Q01DX009 (ip), vehicle: Klucel (hydroxypropylcellulose) (HPC)
  T/C: 105 % of control
dose: 10.0 mg/kg/injection, schedule: Q01DX009 (ip), vehicle: Klucel (hydroxypropylcellulose) (HPC)
  T/C: 108 % of control

## O=C(Cc1ccccc1)C(Br)C(Br)c1ccccc1 (stereo not drawn)
dose: 6.25 mg/kg/injection, schedule: Q01DX009 (ip), vehicle: saline with Tween-80
  T/C: 100 % of control
dose: 12.5 mg/kg/injection, schedule: Q01DX009 (ip), vehicle: saline with Tween-80
  T/C: 118 % of control
dose: 25.0 mg/kg/injection, schedule: Q01DX009 (ip), vehicle: saline with Tween-80
  T/C: 113 % of control

## C[CH2][Hg][S]c1nsc([S][Hg][CH2]C)n1
dose: 3.13 mg/kg/injection, schedule: Q01DX009 (ip), vehicle: Klucel (hydroxypropylcellulose) (HPC)
  T/C: 94 % of control
[1]
  T/C: 118 % of control and 95 % of control
dose: 12.5 mg/kg/injection, schedule: Q01DX009 (ip), vehicle: Klucel (hydroxypropylcellulose) (HPC)
  T/C: 98 % of control and 115 % of control

## O=C(NN=C(c1ccccc1)c1ccccc1)C(Cl)Cl
dose: 42.0 mg/kg/injection, schedule: Q01DX009 (ip), vehicle: saline with Tween-80
  T/C: 99 % of control
dose: 84.0 mg/kg/injection, schedule: Q01DX009 (ip), vehicle: saline with Tween-80
  T/C: 97 % of control
dose: 168.0 mg/kg/injection, schedule: Q01DX009 (ip), vehicle: saline with Tween-80
  T/C: 97 % of control

## CCc1cc(-n2c3c(CC)c(=O)c(CC)cc-3nc3ccccc32)cc(CC)c1O
dose: 25.0 mg/kg/injection, schedule: Q01DX009 (ip), vehicle: saline
  T/C: 98 % of control
dose: 50.0 mg/kg/injection, schedule: Q01DX009 (ip), vehicle: saline
  T/C: 109 % of control
dose: 100.0 mg/kg/injection, schedule: Q01DX009 (ip), vehicle: saline
  T/C: 105 % of control

## CCOC(=O)NCCCl
dose: 5.0 mg/kg/injection, schedule: Q01DX009 (ip), vehicle: saline with Tween-80
  T/C: 104 % of control
dose: 10.0 mg/kg/injection, schedule: Q01DX009 (ip), vehicle: saline with Tween-80
  T/C: 107 % of control
dose: 20.0 mg/kg/injection, schedule: Q01DX009 (ip), vehicle: saline with Tween-80
  T/C: 101 % of control
dose: 50.0 mg/kg/injection, schedule: Q01DX008 (ip), vehicle: saline
  T/C: 95 % of control
dose: 100.0 mg/kg/injection, schedule: Q01DX008 (ip), vehicle: saline
  T/C: 98 % of control
dose: 200.0 mg/kg/injection, schedule: Q01DX008 (ip), vehicle: saline
  T/C: 107 % of control
dose: 400.0 mg/kg/injection, schedule: Q01DX008 (ip), vehicle: saline
  T/C: 101 % of control

## O=C1C=Cc2ccccc2C1=C1SCCS1
[5]
  T/C: 103 % of control
[6]
  T/C: 93 % of control
[7]
  T/C: 90 % of control

## CNC(=O)N(C)C(=O)c1ccncc1C(=O)N(C(=O)NC1CCCCC1)C1CCCCC1
[8]
  T/C: 98 % of control
[9]
  T/C: 89 % of control
[10]
  T/C: 89 % of control

## COc1cccc2c1C(=O)c1c(O)c3c(c(O)c1C2=O)CC(O)(c1csc(N2CCN(C)CC2)n1)CC3O (stereo not drawn)
dose: 1.56 mg/kg/injection, schedule: Q01DX009 (ip), vehicle: water
  T/C: 87 % of control
dose: 3.13 mg/kg/injection, schedule: Q01DX009 (ip), vehicle: water
  T/C: 93 % of control
dose: 6.25 mg/kg/injection, schedule: Q01DX009 (ip), vehicle: water
  T/C: 110 % of control
dose: 12.5 mg/kg/injection, schedule: Q01DX009 (ip), vehicle: water
  T/C: 110 % of control
dose: 25.0 mg/kg/injection, schedule: Q01DX009 (ip), vehicle: water
  T/C: 105 % of control and 116 % of control
dose: 50.0 mg/kg/injection, schedule: Q01DX009 (ip), vehicle: water
  T/C: 102 % of control
dose: 100.0 mg/kg/injection, schedule: Q01DX009 (ip), vehicle: water
  T/C: 107 % of control

## CC(C)(C)n1nc(C2CC2)c(Br)c1NC(=O)c1ccccc1F
dose: 30.0 mg/kg/injection, schedule: Q01DX005 (ip), vehicle: Klucel (hydroxypropylcellulose) (HPC)
  T/C: 100 % of control
dose: 60.0 mg/kg/injection, schedule: Q01DX005 (ip), vehicle: Klucel (hydroxypropylcellulose) (HPC)
  T/C: 98 % of control
dose: 120.0 mg/kg/injection, schedule: Q01DX005 (ip), vehicle: Klucel (hydroxypropylcellulose) (HPC)
  T/C: 104 % of control
dose: 240.0 mg/kg/injection, schedule: Q01DX005 (ip), vehicle: Klucel (hydroxypropylcellulose) (HPC)
  T/C: 100 % of control

## CCOC(=O)C12CC(COc3ccc([N+](=O)[O-])cc3)ON1OC(COc1ccc([N+](=O)[O-])cc1)C2 (stereo not drawn)
dose: 15.0 mg/kg/injection, schedule: Q01DX005 (ip), vehicle: saline with Tween-80
  T/C: 93 % of control
dose: 30.0 mg/kg/injection, schedule: Q01DX005 (ip), vehicle: saline with Tween-80
  T/C: 90 % of control
dose: 60.0 mg/kg/injection, schedule: Q01DX005 (ip), vehicle: saline with Tween-80
  T/C: 86 % of control and 88 % of control

## CC1CN(Cc2ccccc2)CCC1N1CCCC1 (stereo not drawn)
[8]
  T/C: 111 % of control
[9]
  T/C: 107 % of control
[10]
  T/C: 109 % of control

## CCOC(=O)c1ccc2c(=O)[nH]nc(CO)c2c1
[8]
  T/C: 104 % of control
[9]
  T/C: 102 % of control
[10]
  T/C: 96 % of control

## COc1ccc2c(c1)CCC1C2CCC2(C)C1CCC2(O)CCOS(=O)(=O)c1ccc(C)cc1 (stereo not drawn)
[5]
  T/C: 97 % of control
dose: 50.0 mg/kg/injection, schedule: Q01DX009 (ip), vehicle: saline with Tween-80
  T/C: 100 % of control
[6]
  T/C: 97 % of control
dose: 100.0 mg/kg/injection, schedule: Q01DX009 (ip), vehicle: saline with Tween-80
  T/C: 99 % of control
[7]
  T/C: 94 % of control
dose: 200.0 mg/kg/injection, schedule: Q01DX009 (ip), vehicle: saline with Tween-80
  T/C: 104 % of control

## COC(=O)C1=C(C(=O)OC)C(c2ccccc2)N(C)O1 (stereo not drawn)
[8]
  T/C: 103 % of control
[9]
  T/C: 98 % of control
[10]
  T/C: 106 % of control
